Laboratory results from patent US10028508B2, “Use of active compound compositions” (BAYER CROPSCIENCE AKTIENGESELLSCHAFT, priority 2014, dated 2018).
Where two headings read alike, the source gives them in different places.

System: Anopheles funestus metabolic-resistant strain FUMOZ-R
Test: Metabolic-Resistant Anopheles Test (mortality on treated tile, wood, concrete)
Type: in vivo
Conditions: for mortality at 100 mg/m2: Clothianidin 100 mg/m2, read-out: Mortality Effect %; for mortality at 200 mg/m2: Clothianidin 200 mg/m2, read-out: Mortality Effect %
Experimental: To produce a suitable preparation of active compound combination the active compounds deltamethrin and clothanidin were dissolved in acetone (for the control group only one active compound was dissolved in acetone). The active compound combination preparation (and the active compound preparations) were pipetted onto a glazed tile, wood and concrete and, after drying, adult mosquitoes of the species Anopheles funestus metabolic-resistant strain FUMOZ-R (Hunt et al., Med Vet Entomol. 2005 September; 19(3):271-5) are placed onto the treated tile, wood and concrete. The exposition time is 30 minutes.
1 hour, 2 hour, 4 hour, 24 hours after contact to the treated surface, the mortality proportion of the test animals in % is determined. Here, 100% means that all mosquitoes have been killed; 0% means that none of the mosquitoes has been killed. The treated tile, wood and concrete was stored under stress conditions (30° C./80% rh). Measurement with the treated tile, wood and concrete was repeated 5 weeks (Table 1), 11 weeks (Table 2) and 60 weeks (Table 3) after the treatment with the active compound combination.

[1] = 5 weeks after treatment, Concrete, 1 h after contact
[2] = 5 weeks after treatment, Concrete, 2 h after contact
[3] = 5 weeks after treatment, Concrete, 4 h after contact
[4] = 5 weeks after treatment, Concrete, 24 h after contact
[5] = 5 weeks after treatment, Tile, 1 h after contact
[6] = 5 weeks after treatment, Tile, 2 h after contact
[7] = 5 weeks after treatment, Tile, 4 h after contact
[8] = 5 weeks after treatment, Tile, 24 h after contact
[9] = 5 weeks after treatment, Wood, 1 h after contact
[10] = 5 weeks after treatment, Wood, 2 h after contact
[11] = 5 weeks after treatment, Wood, 4 h after contact
[12] = 5 weeks after treatment, Wood, 24 h after contact
[13] = 11 weeks after treatment, Concrete, 1 h after contact
[14] = 11 weeks after treatment, Concrete, 2 h after contact
[15] = 11 weeks after treatment, Concrete, 4 h after contact
[16] = 11 weeks after treatment, Concrete, 24 h after contact
[17] = 11 weeks after treatment, Tile, 1 h after contact
[18] = 11 weeks after treatment, Tile, 2 h after contact
[19] = 11 weeks after treatment, Tile, 4 h after contact
[20] = 11 weeks after treatment, Tile, 24 h after contact
[21] = 11 weeks after treatment, Wood, 1 h after contact
[22] = 11 weeks after treatment, Wood, 2 h after contact
[23] = 11 weeks after treatment, Wood, 4 h after contact
[24] = 11 weeks after treatment, Wood, 24 h after contact
[25] = 60 weeks after treatment, Concrete, 1 h after contact
[26] = 60 weeks after treatment, Concrete, 2 h after contact
[27] = 60 weeks after treatment, Concrete, 4 h after contact
[28] = 60 weeks after treatment, Concrete, 24 h after contact
[29] = 60 weeks after treatment, Tile, 1 h after contact
[30] = 60 weeks after treatment, Tile, 2 h after contact
[31] = 60 weeks after treatment, Tile, 4 h after contact
[32] = 60 weeks after treatment, Tile, 24 h after contact
[33] = 60 weeks after treatment, Wood, 1 h after contact
[34] = 60 weeks after treatment, Wood, 2 h after contact
[35] = 60 weeks after treatment, Wood, 4 h after contact
[36] = 60 weeks after treatment, Wood, 24 h after contact

CN/C(=N\[N+](=O)[O-])NCc1cnc(Cl)s1 [Clothianidin, clothianidin]
30%: mortality at 100 mg/m2 [3] | mortality at 200 mg/m2 [3]
63%: mortality at 200 mg/m2 [28]
27%: mortality at 100 mg/m2 [11] | mortality at 100 mg/m2 [24]
7%: mortality at 100 mg/m2 [6] | mortality at 100 mg/m2 [7] | mortality at 100 mg/m2 [9] | mortality at 200 mg/m2 [9] | mortality at 100 mg/m2 [17] | mortality at 200 mg/m2 [17] | mortality at 200 mg/m2 [26] | mortality at 200 mg/m2 [31]
0%: mortality at 100 mg/m2 [5] | mortality at 200 mg/m2 [5] | mortality at 200 mg/m2 [6] | mortality at 100 mg/m2 [21] | mortality at 100 mg/m2 [25] | mortality at 200 mg/m2 [25] | mortality at 100 mg/m2 [29] | mortality at 200 mg/m2 [29] | mortality at 100 mg/m2 [30] | mortality at 100 mg/m2 [31] | mortality at 100 mg/m2 [33] | mortality at 200 mg/m2 [33] | mortality at 100 mg/m2 [34] | mortality at 100 mg/m2 [35]
15%: mortality at 100 mg/m2 [1]
17%: mortality at 200 mg/m2 [2] | mortality at 200 mg/m2 [14] | mortality at 200 mg/m2 [22] | mortality at 200 mg/m2 [23] | mortality at 200 mg/m2 [27] | mortality at 100 mg/m2 [32] | mortality at 200 mg/m2 [36]
10%: mortality at 100 mg/m2 [2] | mortality at 200 mg/m2 [7] | mortality at 200 mg/m2 [10] | mortality at 100 mg/m2 [18] | mortality at 100 mg/m2 [36]
43%: mortality at 200 mg/m2 [19] | mortality at 200 mg/m2 [32]
90%: mortality at 200 mg/m2 [8]
93%: mortality at 100 mg/m2 [4] | mortality at 100 mg/m2 [12] | mortality at 200 mg/m2 [12] | mortality at 100 mg/m2 [16]
33%: mortality at 100 mg/m2 [23]
67%: mortality at 100 mg/m2 [14]
80%: mortality at 100 mg/m2 [8]
40%: mortality at 200 mg/m2 [24]
47%: mortality at 200 mg/m2 [15]
3%: mortality at 200 mg/m2 [1] | mortality at 200 mg/m2 [13] | mortality at 100 mg/m2 [22] | mortality at 100 mg/m2 [26] | mortality at 200 mg/m2 [30] | mortality at 200 mg/m2 [34] | mortality at 200 mg/m2 [35]
20%: mortality at 100 mg/m2 [10] | mortality at 200 mg/m2 [11] | mortality at 200 mg/m2 [18] | mortality at 100 mg/m2 [27]
37%: mortality at 100 mg/m2 [20] | mortality at 100 mg/m2 [28]
13%: mortality at 100 mg/m2 [19] | mortality at 200 mg/m2 [21]
23%: mortality at 100 mg/m2 [13]
73%: mortality at 100 mg/m2 [15] | mortality at 200 mg/m2 [20]
83%: mortality at 200 mg/m2 [4] | mortality at 200 mg/m2 [16]
